# Source: PMC11352945, “Anticancer Activity of Benzo[a]phenoxazine Compounds Promoting Lysosomal Dysfunction” (Cells, 2024)
# Legend:
# [1] = system: BJ-5ta cells; experiment: Sulforhodamine B (SRB) cell viability assay, BJ-5ta; assay type: cell-based; details: Homo sapiens, non-neoplastic cell line, 48 h, read-out: IC50 (μM) ± SD, BJ-5ta
# Procedure: The cells were allowed to adhere overnight, from 12 h to 18 h, and then treated with increasing concentrations of each compound, C9, A36, and A42 (0.125 μM, 0.25 μM, 0.5 μM, 1 μM, 2.5 μM, and 5 μM), in their respective culture mediums for 48 h. In addition to a negative control that consisted only of cells and growth medium, a negative control containing the highest concentration of the solvent in which the compound was dissolved (DMSO 0.1%) was also used. The SRB assay was performed according to Marques et al.. The IC50 values were obtained using GraphPad Prism version 8.2.1 through the application of a sigmoidal dose–response nonlinear regression, after logarithmic transformation. The selectivity index was determined by dividing the IC50 value of the non-neoplastic BJ-5ta cell line by the IC50 value of the cancer cell lines (IC50 BJ-5ta/IC50 cancer cell line); furthermore, for the CRC model, a second selectivity index was also determined using the non-neoplastic NCM460 cell line (IC50 NCM460/IC50 CRC cell line). According to the results of the selectivity index, the cell line with the highest selectivity value for each of the models, CRC and breast, was selected for subsequent characterization.
# Three CRC-derived cell lines, SW480 (KRAS^G12V), HCT116 (KRAS^G13D), and RKO (BRAF^V600E), harboring somatic mutations on KRAS or BRAF, and two breast-cancer-derived cell lines, MDA-MB-231 (basal like) and MCF7 (luminal A subtype), together with two non-neoplastic cell lines, NCM460 (normal colon mucosal epithelial cell line) and BJ-5ta (normal foreskin fibroblast cell line), were used to study the activity and selectivity of the three new benzo[a]phenoxazine compounds, C9, A36, and A42. All cell lines were treated with a range of drug concentrations (0.125 μM, 0.25 μM, 0.5 μM, 1 μM, 2.5 μM, and 5 μM) for 48 h, and the effect on cell viability was assessed using a sulforhodamine B assay (SRB) (Figure 2). […] In addition, the selectivity index was determined using the BJ-5ta cell line as a reference, as well as the NCM460 cell line for the CRC model (Table 1).
# [2] = system: MCF7 cells; experiment: Lysosomal membrane permeabilization (acridine orange, flow cytometry), MCF7; assay type: cell-based, human; details: MCF7, 4 × IC50, 48 h
# Procedure: RKO and MCF7 lysosomal membrane permeabilization (LMP) was evaluated through flow cytometry using the Acridine Orange (A.O) probe. RKO and MCF7 cells were seeded in 12-well plates at a density of 1 × 10^5 cells/mL. After 24 h, the cells were treated with the compounds C9, A36, and A42 at 2 × IC50 and 4 × IC50 concentrations or 0.1% DMSO (vehicle). As a control, untreated cells were employed. Following a 48 h period, the adherent and floating cells were collected and subjected to a 15-min dark incubation period at 37 °C with 1 μM A.O. After that, the samples were examined by flow cytometry using the PC5.5 channel.
# Following the information obtained with the lead compound and considering the microscopic observations made with these new compounds, we next investigated whether their toxicity was also associated with lysosome targeting. To this end, we evaluated the induction of lysosomal membrane permeabilization (LMP) by flow cytometry, using acridine orange (AO) as probe. This probe allows for an assessment of permeabilization, as its fluorescence decreases upon the release of lysosomal protons. […] The cells that presented decreased AO fluorescence were considered to have permeabilized lysosomes.
# [3] = system: RKO cells; experiment: ROS levels (DHE, flow cytometry), RKO; assay type: cell-based, human; details: 2 × IC50 and 4 × IC50, 48 h
# Procedure: The RKO and MCF7 ROS levels were evaluated through flow cytometry using the dihydroethidium (DHE) probe. RKO and MCF7 cells were seeded in 12-well plates at a density of 1 × 10^5 cells/mL. After 24 h, the cells were treated with the compounds C9, A36, and A42 at 2 × IC50 and 4 × IC50 concentrations or 0.1% DMSO (vehicle). As a control, untreated cells were used. The cells were collected after 48 h of treatment, washed with PBS 1×, and stained for 30 min at 37 °C in the dark using 0.5 μM DHE. The DHE mean fluorescence intensity was analyzed by flow cytometry using the PE-A channel.
# Since ROS generation is reported to precede LMP and cell death, and in view of reports showing that some compounds of this family increase intracellular ROS levels under certain circumstances, we also investigated whether C9, A36, and A42 had any effects in this regard.
# [4] = system: S. cerevisiae; details: yeast S. cerevisiae, microdilution; cited from earlier work
smiles,measurement,setting,value
CCCNc1cc2oc3cc(=NCC)c(C)cc-3nc2c2ccccc12 [C9],IC50,[1],2.55 ± 0.15 µM
same,Percentage of cells with LMP (permeabilized lysosomes),[2],more than 80%
same,ROS levels (fluorescence mean of DHE),[3],higher intensity
same,MIC (minimum inhibitory concentration),[4],6.25 µM
